# Several values for one entry are separate records, joined by “and”; a condition that tells them apart may be missing. Equal entries are not always repeated.
# Experiments:
# [1] = test system: U937 promonocytic cells; experiment: Fluorescence lifetime measurements in U937 cells stained with Rh123; type: cell-based; conditions: for f1(weight) / α1(decay) / τ1(lifetime): long lifetime component (attributed to cytoplasm); for f2(weight) / α2(decay) / τ2(lifetime): short lifetime component (attributed to mitochondria); for fluorescence signal from the probe located in the mitochondria: weight of the short decay component
# Procedure: Cell treatment: U937 promonocytic cells were treated with an oxidative phosphorylation uncoupler CCCP and Nigericin as described hereinabove.
# Cell staining: Cells were stained by treating with Rh123 and loaded in cell chips.
# Fluorescence lifetime measurement: Measurements were carried out using polarizers that were set at magic […]. Rh123 was excited by a 488 nm laser line. Fluorescence testing was conducted from 500 nm wavelengths and above (toward the red area).
# The results were obtained from an average, encompassing 30 evaluations, with standard deviations recorded accordingly. The outstanding result is the fact that two lifetime groups were obtained, one long—above 4 nanoseconds—and one short—below 3 nanoseconds. In order to determine which region correlates with which lifetime group both the lifetimes and the weights were considered.
# [2] = test system: U937 cells; experiment: Spectroscopic measurements in whole and ruptured cells stained with Rh123; type: cell-based
# Procedure: There were two main goals to these experiments. The first goal was to ascertain whether a fluorescence intensity decreases in cells treated with CCCP, and similarly, to ascertain whether fluorescence intensity increases in cells treated with Nigericin. The second goal was to learn about the characteristics and amount of influence of the cellular medium on the Rh123 spectroscopic properties.
# The cells were stained with Rh123 at a concentration of 3 μM and suspended in PBS, at a cell concentration of 350,000/ml. At this cell concentration, no scattered signal was detected in the fluorescence measurement setup.
# The measurement was conducted in CARY spectrofluorometer. The excitation was performed at 480±10 nm and the fluorescence was collected using a 530±10 nm filter. The cell suspension was divided into 4 aliquots in volumes of 2 ml, each. First, the spectrum for all the parts was measured and a comparison was performed to verify equal cell concentration in each quota. Second, parts 3 and 4 were treated with CCCP, while acetone was added to parts 1 and 2, at the same concentration and volume as that in which the CCCP was dissolved, and a spectrum measurement was made. At the end of this process, parts 1 and 3 were ruptured by sonication (VCX 130, Sonics and Materials Inc, Newtown, USA), and parts 2 and 4 were centrifuged and the supernatant was removed to measure the background.
# Since there are differences in the emission spectrum of Rh123 in the mitochondria and cytoplasm, the area under the emission graphs must also be calculated in estimating the given spectral effect of CCCP. The area is proportionate to the number of emitting molecules and not to the measured intensity.
# Cell preparation and measurement were conducted using the Cary system, and were identical to those with CCCP, except that Nigericin was used for […] the cells.
# The overall emission intensity was calculated as above for CCCP to investigate the cause of the fluorescence intensity increase by calculating the area below the emission graph. The columns show average values and standard deviation values of at least two identical experiments. The stars indicate the significant statistical differences before the ANOVA test.
# [3] = test system: U937 promonocytic cells; experiment: Fluorescence polarization measurements in U937 cells stained with Rh123; type: cell-based; conditions: for Mean Polarization: average based on 300 U937 cells stained with Rh123; for Mean Polarization / Mean FP, Left Cell / Mean FP, Right Cell: CCCP 5 μM or Nigericin 5 μg/ml, 15 minutes; for Mean FP, Left Cell / Mean FP, Right Cell: overall polarization of the entire cell, U937 stained with Rh123
# Procedure: Fluorescence polarization (FP) evaluation was conducted using U937 promonocytic cells under the following physiological conditions: control, following treatment with CCCP and following treatment with Nigericin. All the cells were stained with Rh123, rinsed, loaded in cell chips and then measured. Cell treatment: U937 promonocytic cells were treated with an oxidative phosphorylation uncoupler CCCP (commercially available from Sigma-Aldrich) at a concentration of 5 μM and Nigericin (commercially available from Sigma-Aldrich) at 5 μg/ml for 15 minutes. Cell staining: Cells were stained by treating with […] Rh123 and loaded in cell chips. Fluorescence polarization measurement: Transmitted light images and fluorescence images were obtained parallel to the excitation field (excitation and emission polarizers set at 0°), and perpendicular to it, with the excitation polarizer set at 0°, and the emission polarizer set at 90°. From every pair of parallel and perpendicular images, the FP value was calculated for each pixel, using the following equation and a polarization map was created according to the following equation: In order to obtain a calibration reference point, the polarization value was obtained from the entire cell. […] Accordingly, a cell chip was used which allowed defining the borders of the cell by means of images of the cell received through transmitted light photographs. The borders were projected on the polarization map and the FP average was calculated for each cell. This process was implemented to evaluate all the cells, and a general average was obtained for each given physiological state.
# [4] = test system: mitochondria of U937 cells; experiment: Mitochondrial membrane potential derived from lifetime decay weights with the Nernst equation; type: cell-based; conditions: estimated with the f value, Nernst equation at 300° K, VC/VM≅500, U937 cells treated with CCCP
# Excerpt: The following example describes the use of weights ƒ and/or α, decay components, to estimate the probe concentration in the mitochondria and the cytoplasm and from this to derive the membrane potential using the Nernst Equation.
# The weight is proportional to the total measured fluorescence signal from an area with a certain fluorescence lifetime. In relying on the results of the measurement, it can be assumed that the decay level in the mitochondria and the cytoplasm is equal and, therefore, is not taken into consideration. In order to convert the weight ratio to concentration ratios, it is necessary to multiply them by the inverted volume ratio, i.e., VC/VM (C-Cytoplasm, M-Mitochondria). Given that this ratio is constant for a certain type of synchronized cells, [data not shown], despite the complex measurement-calculation, it is enough to execute this operation only once.
# Considering the Nernst equation at 300° K and the measured fluorescence signal: […]
# [5] = Direct influence of pH on the fluorescence lifetime of Rh123 and NAO; type: physicochemical; conditions: Rh123 5 μg/ml, NAO 10 μM
# Procedure: The intra-cellular environment is heterogeneous and multi-phased; therefore, changes may occur in the acidity level in different regions in the cell. Measurements were executed, for this reason, to test if the acidic level has any influence on the fluorescence lifetime of the Rh123. The measurements were conducted in a K2 system, in a suspension of Rh123 with a concentration of 13 μM and the suspension of NAO, in a concentration of 10 μM with an acidity level of 6.0, 7.4 and 8.5.
# [6] = Direct influence of viscosity (glycerol) on FLT and FP of Rh123 and NAO; type: physicochemical; conditions: Rh123 5 μg/ml, NAO 10 μM
# Procedure: In these tests, the fluorescence lifetime τF was also measured along with the rotational decay time τR. For this, Rh123 (5 μg/ml) and suspension NAO (10 μM) were dissolved in three glycerol suspensions (30%, 60% and 80% v/v) in PBS. Each measurement was performed in triplicate.
# [7] = Direct influence of CCCP and Nigericin on emission spectrum, polarization and lifetime of Rh123 in suspension
# Procedure: A suspension of Rh123 at a concentration of 0.5 μg/ml was prepared. The suspension was divided into three aliquots, each containing a volume of 1 ml. To the first part was added 2.5 μl of PBS. To the second part was added 2.5 μl CCCP at a concentration of 2 mM, so that a final concentration of 5 μM CCCP was reached. To the third part was added 2.5 μl of Nigericin, at a concentration of 2 mg/ml, so that a final concentration of 5 μg/ml Nigericin was reached.
# In the first stage, the emission spectrum of the suspension was obtained, using CARY ECLIPSE. The suspensions were excited with 480 nm light and the fluorescence was measured between 500-600 nm, while the slits (emission and excitation) were 2.5 nm.
# The direct influence of CCCP and/or Nigericin were tested on the same suspensions of Rh123, measuring the lifetimes in contrast to the control.
smiles,measurement,setting,value
N#CC(C#N)=NNc1cccc(Cl)c1 [CCCP],f1(weight),[1],0.867
same,α1(decay),[1],0.690 ± 0.105
same,τ1(lifetime),[1],4.27 nsec and 4.271 ± 0.292 nsec
same,f2(weight),[1],0.133
same,α2(decay),[1],0.310 ± 0.100
same,τ2(lifetime),[1],1.475 ± 0.423 nsec
same,fluorescence signal from the probe located in the mitochondria,[1],about 30%
same,number of fluorescent molecules (overall emission intensity following cell rupture),"[2]; ruptured U937 cells stained with Rh123, with and without CCCP",does not diminish the number of fluorescent molecules
same,leakage of the probe (background signal of the suspending solution),[2]; supernatant of U937 cells stained with Rh123 following CCCP treatment,causes leakage from the entire cell
same,emission maximum wavelength of intra-cellular Rh123 following activation of CCCP,"[2]; whole U937 cells stained with Rh123 3 μM, 534 nm before CCCP",532 nm
same,Mean Polarization,[3],0.346 ± 0.013
same,"Mean FP, Left Cell",[3],0.343 ± 0.034
same,"Mean FP, Right Cell",[3],0.324 ± 0.046
same,Δψ (mitochondrial membrane potential),[4],~−112.84 mV
CCCCCCCCC[n+]1c2cc(N(C)C)ccc2cc2ccc(N(C)C)cc21.[Br-] [NAO],Fluorescence life-time τF,[5]; pH 6.0,1.086 ± 0.028 nsec
same,Fluorescence life-time τF,[5]; pH 7.4,1.051 ± 0.003 nsec
same,Fluorescence life-time τF,[5]; pH 8.5,1.066 ± 0.006 nsec
same,FP,[6]; Glycerin 30% v/v in PBS,0.110 ± 0.007
same,τF,[6]; Glycerin 30% v/v in PBS,1.599 ± 0.072 nsec
same,τR (rotational decay time),[6]; Glycerin 30% v/v in PBS,0.923 ± 0.181 nsec
same,FP,[6]; Glycerin 60% v/v in PBS,0.179 ± 0.009
same,τF,[6]; Glycerin 60% v/v in PBS,2.081 ± 0.056 nsec
same,τR (rotational decay time),[6]; Glycerin 60% v/v in PBS,1.298 ± 0.057 nsec
same,FP,[6]; Glycerin 80% v/v in PBS,0.303 ± 0.004
same,τF,[6]; Glycerin 80% v/v in PBS,2.556 ± 0.009 nsec
same,τR (rotational decay time),[6]; Glycerin 80% v/v in PBS,3.888 ± 0.181 nsec
CO[C@@H]1C[C@@H](C[C@H]2CC[C@H](C)[C@H]([C@@H](C)C(=O)O)O2)O[C@]2(O[C@](C)([C@H]3CC[C@@](C)([C@@H]4O[C@@H]([C@H]5O[C@@](O)(CO)[C@H](C)C[C@@H]5C)C[C@@H]4C)O3)C[C@H]2C)[C@@H]1C [Nigericin],f1(weight),[1],0.330
same,α1(decay),[1],0.138 ± 0.048
same,τ1(lifetime),[1],7.735 ± 0.828 nsec
same,f2(weight),[1],0.670
same,α2(decay),[1],0.862 ± 0.030
same,τ2(lifetime),[1],2.519 ± 0.174 nsec
same,fluorescence signal from the probe found in the cytoplasm,[1]; weight of the long decay component,14%
same,fluorescence signal from the probe located in the mitochondria,[1],86%
same,overall emission intensity from a suspension of ruptured cells,"[2]; U937 cells treated prior to rupture, entire emission range",higher than that received from an untreated cell suspension
same,overall emission intensity from whole cells,"[2]; whole U937 cells stained with Rh123, complete emission range",higher than that of untreated cells
same,Mean Polarization,[3],0.258 ± 0.025
same,"Mean FP, Left Cell",[3],0.255 ± 0.057
same,"Mean FP, Right Cell",[3],0.253 ± 0.048
same,polarization values in the mitochondrial areas,"[3]; polarization map of U937 cells stained with Rh123, compared with control",lower
COC(=O)c1ccccc1-c1c2ccc(=N)cc-2oc2cc(N)ccc12.Cl [Rh123],lifetime of Rh123 in a water suspension (PBS),[7],~4.2 nsec
same,Fluorescence life-time τF,[5]; pH 6.0,4.204 ± 0.064 nsec
same,Fluorescence life-time τF,[5]; pH 7.4,4.325 ± 0.007 nsec
same,Fluorescence life-time τF,[5]; pH 8.5,4.215 ± 0.037 nsec
same,FP,[6]; Glycerin 30% v/v in PBS,0.090 ± 0.007
same,τF,[6]; Glycerin 30% v/v in PBS,3.861 ± 0.142 nsec
same,τR (rotational decay time),[6]; Glycerin 30% v/v in PBS,0.460 ± 0.010 nsec
same,FP,[6]; Glycerin 60% v/v in PBS,0.200 ± 0.005
same,τF,[6]; Glycerin 60% v/v in PBS,3.536 ± 0.018 nsec
same,τR (rotational decay time),[6]; Glycerin 60% v/v in PBS,2.219 ± 0.006 nsec
same,FP,[6]; Glycerin 80% v/v in PBS,0.366 ± 0.010
same,τF,[6]; Glycerin 80% v/v in PBS,3.500 ± 0.211 nsec
same,τR (rotational decay time),[6]; Glycerin 80% v/v in PBS,8.463 ± 0.047 nsec

# — patent US20100274500A1, “METHOD AND SYSTEM FOR MEASURING MEMBRANE POTENTIAL BASED ON FLUORESCENCE POLARIZATION” (Seng Enterprises Ltd., priority 2006, published 2010)
